Values quoted from earlier work, collected in publication PMC3202968 (Journal of the American Chemical Society, 2010).

pKa: about 7.1
Structure (SMILES): Cc1cc(C)nc(N)c1 [2-amino-4,6-dimethylpyridine]
